US10077261B2, “Imidazolin-5-one derivative useful as FASN inhibitors for the treatment of cancer” (Janssen Pharmaceutica NV, priority 2012, dated 2018)

Experiments:
[1] = biological target: T1, hFASN enzyme (full length) (Homo sapiens, UniProt P49327); assay: Fatty Acid Synthase (FASN) inhibition scintillation proximity assay; format: biochemical; conditions: for inhibition at 10 µM: read-out: Human FASN % inhibition @ 10 μM, 10 μM test compound; for IC50: read-out: Human FASN pIC50 (converted)
T1 construct: 10 μL hFASN enzyme (full length, 300 ng, purified in house); made in house
Summary of the method: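 Purified full-length hFASN (300 ng) converts ^3H-acetyl-CoA plus malonyl-CoA to ^3H-palmitate in 100 mM KH2PO4 pH 7.5, 1 mM DTT; compounds tested at 0.01–30 μM. Product captured on streptavidin imaging beads and read by LEADseeker at 610 nm after ≥24 h; 4-parameter logistic fit versus controls.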

A2780 ovarian cells [2] = assay: A2780 ovarian cell proliferation assay in lipid reduced medium, with palmitate (MTT); format: cell-based; conditions: Homo sapiens, A2780, 96 h; read-out: pIC50 A2780 Ovarian Cell, With Palmitate (converted)
Summary of the method: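 Seeded cells were switched next day to lipid-reduced serum, exposed to compound and 25 μM palmitate complexed with fatty-acid-free BSA, and incubated 96 h. Proliferation was then determined by MTT absorbance at 544 nm, with a best-fit curve of signal against concentration.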

A2780 ovarian cells [3] = assay: A2780 ovarian cell proliferation assay in lipid reduced medium, without palmitate (MTT); format: cell-based; conditions: Homo sapiens, A2780, 96 h; read-out: pIC50 A2780 Ovarian Cell, Without Palmitate (converted)
[4] = system: LNCaP-Vancouver prostate cells; assay: In vitro LNCaP Vancouver prostate cell proliferation assay in lipid reduced medium; format: cell-based; conditions: read-out: pIC50 LNCaP_Vancouver prostate cell (converted)
[5] = system: PC-3M-Luc-C6 prostate cells; assay: In vitro PC-3M-Luc-C6 prostate cell proliferation assay in lipid reduced medium; format: cell-based; conditions: 96 h, read-out: pIC50 PC-3M-Luc-C6 prostate cell (converted)
[6] = biological target: Fatty Acid Synthase Keto-reductase Domain (FASN KR) (Homo sapiens, UniProt P49327); assay: Fatty Acid Synthase keto-reductase domain (FASN KR) inhibition, NADPH oxidation at 340 nm
Chain of Fatty Acid Synthase Keto-reductase Domain (FASN KR) (P49327 whole entry, the tested form may be a part): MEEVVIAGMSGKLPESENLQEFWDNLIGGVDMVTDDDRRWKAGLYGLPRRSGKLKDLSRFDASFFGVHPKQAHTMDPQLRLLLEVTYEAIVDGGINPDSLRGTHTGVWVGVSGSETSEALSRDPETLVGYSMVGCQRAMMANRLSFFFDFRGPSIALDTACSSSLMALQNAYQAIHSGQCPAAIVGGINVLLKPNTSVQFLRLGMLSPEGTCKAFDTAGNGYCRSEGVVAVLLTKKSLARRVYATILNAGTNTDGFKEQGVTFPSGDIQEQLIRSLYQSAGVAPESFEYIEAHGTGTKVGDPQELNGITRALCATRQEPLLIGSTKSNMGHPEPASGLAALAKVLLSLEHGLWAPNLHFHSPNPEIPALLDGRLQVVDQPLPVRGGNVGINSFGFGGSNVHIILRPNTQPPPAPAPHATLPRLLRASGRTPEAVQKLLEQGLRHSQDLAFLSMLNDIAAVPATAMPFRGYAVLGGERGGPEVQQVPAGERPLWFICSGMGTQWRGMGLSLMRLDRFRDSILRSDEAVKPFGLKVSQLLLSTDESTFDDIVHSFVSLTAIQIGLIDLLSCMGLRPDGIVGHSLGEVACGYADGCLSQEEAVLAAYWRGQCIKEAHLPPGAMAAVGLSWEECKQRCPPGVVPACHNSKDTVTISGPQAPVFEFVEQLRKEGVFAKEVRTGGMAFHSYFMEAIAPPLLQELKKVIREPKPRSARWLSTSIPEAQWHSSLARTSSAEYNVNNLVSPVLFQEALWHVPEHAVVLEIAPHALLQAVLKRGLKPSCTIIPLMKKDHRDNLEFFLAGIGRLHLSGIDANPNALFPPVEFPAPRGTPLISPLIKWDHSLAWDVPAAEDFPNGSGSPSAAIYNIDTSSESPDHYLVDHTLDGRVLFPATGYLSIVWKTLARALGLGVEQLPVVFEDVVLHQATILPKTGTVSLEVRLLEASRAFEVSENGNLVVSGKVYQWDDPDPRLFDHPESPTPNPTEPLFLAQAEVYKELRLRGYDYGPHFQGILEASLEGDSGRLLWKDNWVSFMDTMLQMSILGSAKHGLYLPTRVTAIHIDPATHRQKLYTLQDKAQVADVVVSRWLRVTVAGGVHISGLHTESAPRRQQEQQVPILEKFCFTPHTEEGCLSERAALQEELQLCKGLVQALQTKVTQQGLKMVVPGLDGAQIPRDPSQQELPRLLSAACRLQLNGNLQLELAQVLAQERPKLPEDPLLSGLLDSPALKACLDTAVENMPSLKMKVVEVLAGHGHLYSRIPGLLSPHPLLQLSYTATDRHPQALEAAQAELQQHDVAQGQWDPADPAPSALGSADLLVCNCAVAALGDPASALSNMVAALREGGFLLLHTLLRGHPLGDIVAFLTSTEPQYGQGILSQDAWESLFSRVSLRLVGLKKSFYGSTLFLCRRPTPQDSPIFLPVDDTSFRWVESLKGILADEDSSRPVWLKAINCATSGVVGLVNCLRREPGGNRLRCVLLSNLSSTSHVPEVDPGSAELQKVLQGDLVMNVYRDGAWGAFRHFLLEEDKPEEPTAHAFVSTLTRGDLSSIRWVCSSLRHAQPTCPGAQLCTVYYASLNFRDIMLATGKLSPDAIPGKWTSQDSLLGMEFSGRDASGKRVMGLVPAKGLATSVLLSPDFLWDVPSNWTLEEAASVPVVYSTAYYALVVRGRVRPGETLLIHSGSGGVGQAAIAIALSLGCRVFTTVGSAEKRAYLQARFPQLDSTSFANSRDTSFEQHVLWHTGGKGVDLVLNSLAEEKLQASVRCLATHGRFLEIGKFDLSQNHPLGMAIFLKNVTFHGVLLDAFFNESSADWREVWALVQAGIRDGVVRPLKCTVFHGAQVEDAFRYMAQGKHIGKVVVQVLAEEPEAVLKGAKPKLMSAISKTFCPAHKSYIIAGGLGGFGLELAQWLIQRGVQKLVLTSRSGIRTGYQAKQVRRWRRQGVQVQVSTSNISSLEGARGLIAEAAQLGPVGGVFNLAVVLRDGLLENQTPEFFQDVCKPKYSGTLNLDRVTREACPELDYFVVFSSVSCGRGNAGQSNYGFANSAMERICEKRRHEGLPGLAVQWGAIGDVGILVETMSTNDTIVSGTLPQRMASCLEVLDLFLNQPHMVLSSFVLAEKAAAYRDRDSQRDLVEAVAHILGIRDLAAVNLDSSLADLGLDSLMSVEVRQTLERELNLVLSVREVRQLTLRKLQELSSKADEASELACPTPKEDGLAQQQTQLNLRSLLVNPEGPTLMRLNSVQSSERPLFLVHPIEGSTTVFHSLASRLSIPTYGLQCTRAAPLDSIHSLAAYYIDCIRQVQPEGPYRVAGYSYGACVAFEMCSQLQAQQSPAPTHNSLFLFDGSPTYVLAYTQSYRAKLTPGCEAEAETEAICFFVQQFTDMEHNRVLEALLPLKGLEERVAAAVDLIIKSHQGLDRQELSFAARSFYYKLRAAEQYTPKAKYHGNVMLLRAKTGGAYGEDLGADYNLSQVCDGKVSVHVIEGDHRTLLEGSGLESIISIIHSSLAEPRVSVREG
Protocol: After 20 minutes incubation at room temperature the plate was measured again (T2).
The decrease in absorbance was calculated as (Absorbance before incubation T1)−(Absorbance following incubation T2).
A plot of Controlmin versus test compound concentration was fitted to a 4-parameter logistic curve using a non-linear least squares regression method.

T1 sequence (P49327 whole entry): as the sequence (P49327 whole entry, the tested form may be a part) above

Structure (SMILES) | inhibition at 10 µM [1] [%] | IC50 [1] [nM] | IC50 (A2780 ovarian cells [2]) [nM] | IC50 (A2780 ovarian cells [3]) [nM] | IC50 [4] [nM] | IC50 [5] [nM] | IC50 [6] [nM] | Human FASN pIC50 ([1]; hFASN enzyme full length, scintillation proximity assay, "~" = standard error of pIC50 larger than 0.5) | FASN Keto-reductase Domain pIC50 ([6]; NADPH oxidation, absorbance at 340 nm, ethyl acetoacetate substrate)
Cc1cc(-c2ccc3c(cnn3C)c2)ccc1C1=NC2(CC2)C(=O)N1CC1CN(C(=O)C2CCCO2)C1 (stereo in doubt) [compound 206, (S)-5-(2-methyl-4-(1-methyl-1H-indazol-5-yl)phenyl)-6-((1-(tetrahydro-furan-2-carbonyl)azetidin-3-yl)methyl)-4,6-diazaspiro[2.4]hept-4-en-7-one] | 101 | 37.2 | > 10000 | ~10.5 | 100 | 19.1 | 75.9 |  | 
O=C(C1CC1)N1CC(CN2C(=O)C3(CC3)N=C2c2ccc(-c3ccc4occc4c3)cc2)C1 [compound 49, 5-[4-(1-Benzofuran-5-yl)phenyl]-6-{[1-(cyclopropylcarbonyl)azetidin-3-yl]methyl}-4,6-diazaspiro[2.4]hept-4-en-7-one] | 101 | 60.3 | > 10000 | 331 | 912 | 219 | 155 |  | 
Cn1cc(-c2ccc(-c3ccc(C4=NC5(CC5)C(=O)N4CC4CN(C(=O)C5CC5)C4)cc3)cc2)cn1 [compound 59, 6-{[1-(Cyclopropylcarbonyl)azetidin-3-yl]methyl}-5-[4′-(1-methyl-1H-pyrazol-4-yl)biphenyl-4-yl]-4,6-diazaspiro[2.4]hept-4-en-7-one] | 98.7 | 41.7 | > 10000 | 95.5 | 263 | 100 | 132 |  | 
Cn1cc(-c2ccc(-c3ccc(C4=NC5(CC5)C(=O)N4C[C@@H]4CCN(C(=O)C5CC5)C4)cc3)cc2)cn1 [compound 65, (R)-6-((1-(Cyclopropanecarbonyl)pyrrolidin-3-yl)methyl)-5-(4′-(methyl-1H-pyrazol-4-yl)-[1,1′-biphenyl]-4-yl)-4,6-diazaspiro[2.4]hept-4-en-7-one] | 101 |  | > 10000 | ~13.2 | 66.1 | ~24.5 |  | 7.55 | 7.27
Cn1ncc2cc(-c3ccc(C4=NC5(CC5)C(=O)N4C[C@@H]4CCN(C(=O)C5(O)CC5)C4)cc3)ccc21 [compound 200] | 102 | 34.7 | > 10000 | ~3.89 | ~33.9 | 6.46 | 34.7 |  | 
Cn1ncc2cc(-c3ccc(C4=NC5(CC5)C(=O)N4C[C@@H]4CCN(C(=O)C5(C)CC5)C4)cc3)ccc21 [compound 201, (R)-5-(4-(1-methyl-1H-indazol-5-yl)phenyl)-6-((1-(1-methylcyclopropanecarbonyl)pyrrolidin-3-yl)methyl)-4,6-diazaspiro[2.4]hept-4-en-7-one] | 100 | 43.7 | ~3470 | ~4.37 | 20.9 | ~6.61 | 33.9 |  | 
O=C(N1CC[C@@H](CN2C(=O)C3(CC3)N=C2c2ccc(-c3ccc(Cl)cc3F)cc2)C1)C1(O)CC1 [compound 202, (R)-5-(4′-chloro-2′-fluoro[1,1′-biphenyl]-4-yl)-6-((1-(1-hydroxycyclopropanecarbonyl)pyrrolidin-3-yl)methyl)-4,6-diazaspiro[2.4]hept-4-en-7-one] | 101 | 83.2 | > 10000 | 58.9 | 550 | ~95.5 | 74.1 |  | 
COc1ccc2cc(-c3ccc(C4=NC5(CC5)C(=O)N4C[C@@H]4CCN(C(=O)C5(O)CC5)C4)cc3)ccc2c1 [compound 203, (R)-6-((1-(1-hydroxycyclopropanecarbonyl)pyrrolidin-3-yl)methyl)-5-(4-(6-methoxynaphthalen-2-yl)phenyl)-4,6-diazaspiro[2.4]hept-4-en-7-one] | 99 | 57.5 | > 10000 | ~4.57 | 21.4 | 5.62 | 46.8 |  | 
Cc1cc(-c2ccc3c(cnn3C)c2)ccc1C1=NC2(CC2)C(=O)N1CC1CN(C(=O)C2CCCO2)C1 (stereo not shown) [compound 205, 5-(2-methyl-4-(1-methyl-1H-indazol-5-yl)phenyl)-6-((1-(tetrahytdro-furan-2-carbonyl)azetidin-3-yl)methyl)-4,6-diazaspiro[2.4]hept-4-en-7-one] | 94 | 97.7 | > 10000 | 36.3 | 102 | 53.7 | 115 |  | 
Cc1cc(-c2ccc3c(cnn3C)c2)ccc1C1=NC2(CC2)C(=O)N1CC1CN(C(=O)C2(C)CCC2)C1 [compound 208, 5-(2-methyl-4-(1-methyl-1H-indazol-5-yl)phenyl)-6-((1-(1-methylcyclobutanecarbonyl)azetidin-3-yl)methyl)-4,6-diazaspiro[2.4]hept-4-en-7-one] | 99 | 64.6 | 6030 | ~72.4 | 117 | 43.7 | 105 |  | 
O=C(C1CC1)N1CC[C@@H](CN2C(=O)C3(CC3)N=C2c2ccc(-c3ccc(F)c(Cl)c3)cc2)C1 [compound 209, (R)-5-(3-chloro-4-fluoro-[1,1-biphenyl]-4-yl)-6-((1-(cyclopropanecarbonyl)pyrrolidin-3-yl)methyl)-4,6-diazaspiro[2.4]hept-4-en-7-one] | 108 | 89.1 | > 10000 | 1860 | 4170 | ~776 | 257 |  | 
N#CCc1c[nH]c2ccc(-c3ccc(C4=NC5(CC5)C(=O)N4C[C@@H]4CCN(C(=O)C5CC5)C4)cc3)cc12 [compound 212, (R)-2-(5-(4-(6-((1-(cyclopropanecarbonyl)pyrrolidin-3-yl)methyl)-7-oxo-4,6-diazaspiro[2.4]hept-4-en-5-yl)phenyl)-1H-indole-3-yl)acetonitrile] | 101 | 28.2 | > 10000 | 7.24 | 110 | 18.2 | 37.2 |  | 
COC(=O)N1CC2(C1)N=C(c1ccc(-c3ccc4cccnc4c3)cc1)N(C[C@@H]1CCN(C(=O)C3CC3)C1)C2=O [compound 728, Methyl 7-{[(3R)-1-(cyclopropylcarbonyl)pyrrolidin-3-yl]methyl}-8-oxo-6-(4-quinolin-7-ylphenyl)-2,5,7-triazaspiro[3.4]ect-5-ene-2-carboxylate] | 100 | 64.6 |  |  | 525 | 151 | 316 |  | 
COC(=O)N1CC2(C1)N=C(c1ccc(-c3ccc4cccnc4c3)cc1)N(C[C@@H]1CCN(C(=O)[C@H]3CCCO3)C1)C2=O [compound 730, Methyl 8-oxo-6-(4-quinolin-7-ylphenyl)-7-({(3R)-1-[(2R)-tetrahydro-furan-2-ylcarbonyl]pyrrolidin-3-yl}methyl)-2,5,7-triazaspiro[3.4]oct-5-ene-2-carboxylate] | 102 | 100 |  |  | ~407 | 97.7 | 355 |  | 
COC(=O)N1CC2(C1)N=C(c1ccc(-c3ccc4occc4c3)cc1)N(C[C@@H]1CCN(C(=O)C3CC3)C1)C2=O [compound 733, Methyl 6-[4-(1-benzofuran-5-yl)phenyl]-7-{[(3R)-1-(cycloprropylcarbonyl)pyrrolidin-3-yl]methyl}-8-oxo-2,5,7-triazaspiro[3.4]oct-5-ene-2-carboxylate] | 96 | 200 |  |  | 3310 | 1290 | 537 |  | 
COC(=O)N1CC2(C1)N=C(c1ccc(-c3ccc4occc4c3)cc1)N(C[C@@H]1CCN(C(=O)[C@H]3CCCO3)C1)C2=O [compound 735, Methyl 6-[4-(1-benzofuran-5-yl)phenyl]-8-oxo-7-({(3R)-1-[(2T)-tetrahydro-furan-2-ylcarbonyl]pyrrolidin-3-yl}methyl)-2,5,7-triazaspiro[3.4]oct-5-ene-2-carboxylate] | 97 | 135 |  |  | 3800 | ~912 | 851 |  | 
COC(=O)N1CC2(C1)N=C(c1ccc(-c3ccc4c(cnn4C)c3)cc1)N(C[C@@H]1CCN(C(=O)[C@H]3CCCO3)C1)C2=O [compound 739, Methyl 6-[4-(1-methyl-1H-indazol-5-ylyl)phenyl]-8-oxo-7-({(3R)-1-[(2R)-tetrahydro-furan-2-ylcarbonyl]pyrrolidin-3-yl}methyl)-2,5,7-triazaspiro[3.4]oct-5-ene-2-carboxylate] | 92 | 234 |  |  | 3800 | ~871 | 513 |  | 
